Assay results reported in US4690935A, “Inhibition of tumor growth and metastasis with calcium channel blocker compounds” (Wayne State University, priority 1983, dated 1987).

Test system: Platelet
Test: Tumor cell (Lewis Lung Carcinoma, 3LL) induced platelet aggregation (TCIPA)
Assay type: cell-based, human
Details: 3LL cells
Protocol: Blood (45 ml) was drawn from the […] vein of healthy, fasted, aspirin free (at least two weeks) human volunteers into a plastic syringe containing 5 ml of 4.8% dextrose with 50 U/ml heparin buffered by 25 mM HEPES, pH 7.5. An 18 gauge needle was used to prevent hemolysis. The heparinized blood was gently mixed by inverting the syringe five times and then the blood was transfused into two 40 ml plastic centrifuge tubes and centrifuged for 10 min at 163×g. The resulting platelet rich plasma (PRP; the supernatant fraction) was decanted using an adjustable SMI pipette set at 6 ml. Platelet poor plasma (PPP) was prepared by centrifugation of PRP for 10 min at 1086×g. Platelet poor plasma was used to standardize the platelet concentration in PRP to 3×10^8 /ml. Platelet concentrations were determined using a Coulter Model ZBI cell counter.
Platelet aggregation was measured photometrically using a Sienco Model DP-247E dual channel aggregometer and recorded on a Sienco Model B-5000 dual channel recorder. Aliquots of PRP (250 microliters at 3×10^8 platelets/ml) were transferred into aggregometry cuvettes and stirred at a constant speed of 800 RPM at 37° C. Platelet aggregation studies were designed and run as individually controlled samples. BAY e 9736 was dissolved in either PEG-400 or […] (DMSO).
BAY e 9736 in PEG-400 alone was aliquoted into the cuvettes prior to the addition of the PRP. Immediately after the addition of the PRP, the cuvettes were placed into the aggregometer. After two minutes (to allow for the stabilization of the platelet preparation and mixing of the BAY e 9736), ADP or tumor cells were added in 20 microliter aliquots to induce platelet aggregation.
The calcium channel blocker nifedipine was tested for its ability to inhibit tumor cell induced platelet aggregation (TCIPA). Nifedipine (20 mg) was dissolved in one milliliter of abolute ethanol:PEG-400 (1:1), and then diluted 1:10 with the same ethanol:PEG-400 mixture. […]

Q: Which results are given for `COC(=O)C1=C(C)NC(C)=C(C(=O)OC)C1c1ccccc1[N+](=O)[O-]` [nifedipine]?
A: effect on tumor cell induced platelet aggregation (in words): can inhibit TCIPA in a dose dependent fashion; inhibition at 15 µg/mL (Homo sapiens, 0.015 mg/ml, read-out: INHIBITION OF CONTROL TCIPA): 22%; inhibition at 150 µg/mL (Homo sapiens, 0.15 mg/ml, read-out: INHIBITION OF CONTROL TCIPA): 42%
